Test results as given in ChEMBL document CHEMBL1909046, “DrugMatrix in vitro pharmacology data”.

Experiments:
Carbonic anhydrase 2 = Carbonic anhydrase 2 (Homo sapiens, UniProt P00918); test: DRUGMATRIX: Carbonic Anhydrase II enzyme inhibition (substrate: 4-Nitrophenyl acetate (4-NPA)); format: tissue-based; settings: erythrocyte; Not Active = under 50% inhibition at 10 µM
[1] = molecular target: Tyrosine-protein kinase Lck (Homo sapiens, UniProt P06239); test: DRUGMATRIX: Protein Tyrosine Kinase, LCK enzyme inhibition (substrate: Poly(Glu:Tyr)); format: cell-based, Insect cells; settings: Not Active = under 50% inhibition at 10 µM
[2] = molecular target: T1, Amine oxidase [flavin-containing] A (Homo sapiens, UniProt P21397); test: DRUGMATRIX: Monoamine Oxidase MAO-A enzyme inhibition (substrate: Kynuramine); parameters: species or system BTI-TN-5B1-4; settings: bti-tn-5b1-4; Not Active = under 50% inhibition at 10 µM
T1 sequence (P21397 whole entry): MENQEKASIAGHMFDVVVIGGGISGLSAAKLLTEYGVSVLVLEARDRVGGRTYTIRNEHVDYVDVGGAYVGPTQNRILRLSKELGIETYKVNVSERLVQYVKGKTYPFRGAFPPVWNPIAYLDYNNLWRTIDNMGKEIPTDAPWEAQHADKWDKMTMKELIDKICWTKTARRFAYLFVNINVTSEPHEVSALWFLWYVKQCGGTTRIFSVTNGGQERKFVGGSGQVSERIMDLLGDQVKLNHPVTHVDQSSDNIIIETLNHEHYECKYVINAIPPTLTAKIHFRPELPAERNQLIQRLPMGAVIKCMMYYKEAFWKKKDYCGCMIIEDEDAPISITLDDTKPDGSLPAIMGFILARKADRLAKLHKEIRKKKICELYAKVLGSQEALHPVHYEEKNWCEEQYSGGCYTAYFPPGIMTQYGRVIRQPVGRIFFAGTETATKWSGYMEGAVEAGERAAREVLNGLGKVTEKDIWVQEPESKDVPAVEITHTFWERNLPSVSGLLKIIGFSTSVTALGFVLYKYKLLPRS

Cytochrome P450 3A4 = Cytochrome P450 3A4 (Homo sapiens, UniProt P08684); settings: bti-tn-5b1-4; further: in other assays of this panel Not Active means under 50% inhibition at 10 µM
[3] = molecular target: Sodium-dependent noradrenaline transporter (Homo sapiens, UniProt P23975); test: DRUGMATRIX: Norepinephrine Transporter radioligand binding (ligand: [125I] RTI-55); format: cell membranes, MDCK, Membrane; settings: mdck; Not Active = under 50% inhibition at 10 µM
[4] = molecular target: T2, Alpha-2C adrenergic receptor (Homo sapiens, UniProt P18825); test: DRUGMATRIX: Adrenergic Alpha-2C radioligand binding (ligand: [3H] MK-912); format: cell membranes, Sf9, Membrane
T2 sequence (P18825 whole entry): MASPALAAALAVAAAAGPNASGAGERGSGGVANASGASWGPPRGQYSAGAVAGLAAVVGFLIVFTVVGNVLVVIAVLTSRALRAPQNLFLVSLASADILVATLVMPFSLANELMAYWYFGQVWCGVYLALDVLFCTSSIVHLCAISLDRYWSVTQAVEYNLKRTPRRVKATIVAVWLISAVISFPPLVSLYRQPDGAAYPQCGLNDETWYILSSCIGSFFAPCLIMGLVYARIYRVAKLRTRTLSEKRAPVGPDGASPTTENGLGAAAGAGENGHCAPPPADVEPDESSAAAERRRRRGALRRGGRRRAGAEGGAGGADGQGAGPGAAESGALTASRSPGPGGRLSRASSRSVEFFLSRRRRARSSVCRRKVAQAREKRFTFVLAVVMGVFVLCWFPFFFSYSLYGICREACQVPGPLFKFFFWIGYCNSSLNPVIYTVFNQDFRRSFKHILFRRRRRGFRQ

Sequence of Sodium-dependent noradrenaline transporter (P23975 whole entry): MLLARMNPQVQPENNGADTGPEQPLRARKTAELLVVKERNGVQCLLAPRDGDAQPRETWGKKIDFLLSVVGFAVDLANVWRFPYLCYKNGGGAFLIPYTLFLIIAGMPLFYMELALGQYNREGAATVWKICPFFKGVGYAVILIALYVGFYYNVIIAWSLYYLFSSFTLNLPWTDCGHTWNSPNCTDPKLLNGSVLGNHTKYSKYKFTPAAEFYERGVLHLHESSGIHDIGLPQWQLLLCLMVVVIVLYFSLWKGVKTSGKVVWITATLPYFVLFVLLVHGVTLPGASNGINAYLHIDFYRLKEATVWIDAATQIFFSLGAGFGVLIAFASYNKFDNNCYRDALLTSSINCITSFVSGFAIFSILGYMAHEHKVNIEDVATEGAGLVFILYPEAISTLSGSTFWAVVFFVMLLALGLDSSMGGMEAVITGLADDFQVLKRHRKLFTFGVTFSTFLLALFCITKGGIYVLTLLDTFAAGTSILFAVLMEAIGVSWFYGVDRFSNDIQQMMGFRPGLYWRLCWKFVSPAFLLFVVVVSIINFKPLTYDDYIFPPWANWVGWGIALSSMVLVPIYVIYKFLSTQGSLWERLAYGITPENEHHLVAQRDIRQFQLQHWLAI
Sequence of Tyrosine-protein kinase Lck (P06239 whole entry): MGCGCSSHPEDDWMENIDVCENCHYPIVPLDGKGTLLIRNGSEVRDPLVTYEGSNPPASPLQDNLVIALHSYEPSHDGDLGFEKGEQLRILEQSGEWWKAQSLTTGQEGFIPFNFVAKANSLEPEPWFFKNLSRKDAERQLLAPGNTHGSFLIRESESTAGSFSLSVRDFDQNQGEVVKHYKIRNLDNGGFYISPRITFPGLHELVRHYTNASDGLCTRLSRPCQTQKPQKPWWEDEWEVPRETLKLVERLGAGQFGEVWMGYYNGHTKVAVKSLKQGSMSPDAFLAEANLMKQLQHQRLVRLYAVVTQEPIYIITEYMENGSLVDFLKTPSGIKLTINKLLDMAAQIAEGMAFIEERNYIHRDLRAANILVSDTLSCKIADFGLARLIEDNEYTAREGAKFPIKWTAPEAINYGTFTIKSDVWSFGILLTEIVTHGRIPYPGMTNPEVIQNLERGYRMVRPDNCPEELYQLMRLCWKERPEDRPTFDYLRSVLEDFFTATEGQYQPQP
Sequence of Cytochrome P450 3A4 (P08684 whole entry): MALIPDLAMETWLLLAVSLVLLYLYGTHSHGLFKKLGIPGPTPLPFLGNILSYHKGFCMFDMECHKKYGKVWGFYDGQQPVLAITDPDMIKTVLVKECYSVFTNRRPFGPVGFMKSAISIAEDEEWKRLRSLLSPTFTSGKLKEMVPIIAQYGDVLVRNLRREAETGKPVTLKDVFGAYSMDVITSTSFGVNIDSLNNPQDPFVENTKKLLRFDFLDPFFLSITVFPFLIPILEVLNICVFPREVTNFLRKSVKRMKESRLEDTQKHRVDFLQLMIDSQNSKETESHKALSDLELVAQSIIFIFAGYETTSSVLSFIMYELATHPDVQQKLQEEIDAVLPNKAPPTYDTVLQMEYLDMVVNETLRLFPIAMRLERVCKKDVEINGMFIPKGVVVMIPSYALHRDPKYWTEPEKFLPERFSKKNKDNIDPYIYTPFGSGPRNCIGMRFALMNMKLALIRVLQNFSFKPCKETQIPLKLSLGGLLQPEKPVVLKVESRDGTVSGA

Row | Compound | IC50 (Carbonic anhydrase 2) | IC50 ([1]; insect cells) | IC50 [2] | IC50 (Cytochrome P450 3A4) | Ki (Cytochrome P450 3A4) | IC50 [3] | IC50 ([4]; sf9) | IC50 ([4]; read-out: IC50) [µM] | Ki ([4]; read-out: Ki) [µM] | IC50 ([1]; read-out: IC50) [µM] | Ki (Carbonic anhydrase 2) | Ki ([1]; insect cells) | Ki [2] | Ki [3] | Ki ([4]; sf9)
1 | O.O.O.O.O.O.[Cl-].[Cl-].[Sr+2] [STRONTIUM CHLORIDE HEXAHYDRATE] | Not Active | Not Active | Not Active | Not Active | Not Active | Not Active | Not Active |  |  |  |  |  |  |  | 
2 | O=C1C(CC[S+]([O-])c2ccccc2)C(=O)N(c2ccccc2)N1c1ccccc1 (stereo not given) [SULFINPYRAZONE] | Not Active | Not Active | Not Active | Not Active | Not Active | Not Active | Not Active |  |  |  |  |  |  |  | 
3 | NC(=O)N1C(=O)/C(=C(\O)c2cccs2)c2cc(Cl)ccc21 [TENIDAP] | Not Active | Not Active | Not Active | Not Active | Not Active | Not Active | Not Active |  |  |  |  |  |  |  | 
4 | Cn1c(=O)c2nc[nH]c2n(C)c1=O.O [THEOPHYLLINE] | Not Active | Not Active | Not Active | Not Active | Not Active | Not Active | Not Active |  |  |  |  |  |  |  | 
5 | CS(=O)(=O)c1ccc([C@@H](O)[C@@H](CO)NC(=O)C(Cl)Cl)cc1 [THIAMPHENICOL] | Not Active | Not Active | Not Active | Not Active | Not Active | Not Active | Not Active |  |  |  |  |  |  |  | 
6 | CCN(CC)CCNC(=O)c1cc(S(C)(=O)=O)ccc1OC [TIAPRIDE] | Not Active | Not Active | Not Active | Not Active | Not Active | Not Active | Not Active |  |  |  |  |  |  |  | 
7 | Clc1ccccc1CN1CCc2sccc2C1 [TICLOPIDINE] | Not Active | Not Active | Not Active | Not Active | Not Active | Not Active |  | 1.17 | 0.171 |  |  |  |  |  | 
8 | NC1CCN(c2nc3c(cc2F)c(=O)c(C(=O)O)cn3-c2ccc(F)cc2F)C1 (stereo not given) [TOSUFLOXACIN] | Not Active | Not Active | Not Active | Not Active | Not Active | Not Active | Not Active |  |  |  |  |  |  |  | 
9 | O=C(Nc1ccc(Br)cc1)c1cc(Br)cc(Br)c1O [TRIBROMSALAN] | Not Active |  | Not Active | Not Active | Not Active | Not Active | Not Active |  |  | 5.02 |  |  |  |  | 
10 | CC(c1cc2ccccc2s1)N(O)C(N)=O (stereo not given) [ZILEUTON] | Not Active | Not Active | Not Active | Not Active | Not Active | Not Active | Not Active |  |  |  |  |  |  |  | 
11 | MANGANESE CHLORIDE ANHYDROUS | Not Active | Not Active | Not Active | Not Active | Not Active | Not Active | Not Active |  |  |  | Not Active | Not Active | Not Active | Not Active | Not Active
12 | SODIUM ORTHOVANAD | Not Active | Not Active | Not Active | Not Active | Not Active | Not Active | Not Active |  |  |  | Not Active | Not Active | Not Active | Not Active | Not Active
